Experimental data reported in paper PMC9968064, “First Synthesis of DBU-Conjugated Cationic Carbohydrate Derivatives and Investigation of Their Antibacterial and Antifungal Activity” (International Journal of Molecular Sciences, 2023).
“Also recorded” adds a separate entry of the source. Where two headings read alike, the source gives them in different places.

Key:
[1] = system: Escherichia coli (ATCC 8739); parameters: method as in PMID 24144185; settings: reference antibiotics; cited from earlier work
[2] = system: Staphylococcus aureus ssp. aureus (ATCC 6538); parameters: method as in PMID 22866984; settings: reference antibiotics; cited from earlier work
[3] = system: HaCaT (human keratinocyte) cell line; experiment: MTT viability test on HaCaT cells; format: cell-based; settings: 24 h; for IC50: Homo sapiens, HaCaT, 50–3.125 µg/mL; for effect on HaCaT cell viability at antibacterially and antifungally active concentrations: ≤6.25 µg/mL
Experimental: The cytotoxic effect of six selected compounds (3, 10, 12, 21, 22 and 29) with promising antimicrobial activity was studied on HaCaT (human keratinocyte) cell lines. Using the MTT-test, we determined the viability of the cells (Figure 3), and the half maximal inhibitory concentration (IC50) values of the compounds are summarized in Table 4. The duration of tests was 24 h; the examined concentrations were: 50–25–12.5–6.25–3.125 µg/mL. The IC50 value of a compound was defined as the concentration that inhibits cell growth by 50% relative to the control. […], the medium containing the inhibitor was removed, and 10 μL MTT solution was added to the cells. The plates were then incubated for two hours at 37 °C. The medium from the wells was then carefully aspirated, and MTT formazan dissolved with 100 μL of DMSO aided by gentle agitation on a shaker. After 10 min at room temperature, the absorbances were read at 570 nm by an automatic plate reader. The percentage of viability reflecting the respiratory potential of the cell population in each well was expressed as (absorbance of treated cells/absorbance of control cells) × 100. IC50 values of tested agents were determined by Graphpad (Prism) semi-log line fitting (graphpad.com (8)). The MTT test was performed after treatment and removal of inhibitors followed by the addition of 10 μL of MTT solution to the cells. We tested the toxic effect of compounds 3, 10, 12, 21, 22 and 29 on HaCaT cell line. HaCaT is a spontaneously transformed, aneuploid keratinocyte, an adherent cell type derived from the epithelium of Human […] adult skin. The cell line was immortalized in 1986 under low calcium and high-temperature conditions. Cells were cultured in DMEM medium (iBiotech, Szigetszentmiklós, Hungary) containing 10% fetal bovine serum (FBS, iBiotech, Szigetszentmiklós, Hungary) and 1% antibiotic-antimycotic mix (Penicillin–Streptomycin–Neomycin).

[4] = system: Escherichia coli (ATCC 8739); experiment: MIC determination (antibacterial susceptibility test, CLSI / Hungarian Pharmacopeia); format: cell-based; settings: Escherichia coli, ATCC8739, tested range 6.25–100 µg/mL
Experimental: (§1) The antimicrobial activity of twenty-two cationic hexopyranoside-amidinium salts (3, 10, 11, 12, 21, 22, 23, 24, 29, 30, 32, 37, 38, 45, 46, 47, 48, 49, 50, 51, 52 and 53) were compared in susceptibility tests (Table 2). The effectiveness of all compounds was tested on Staphylococcus aureus ssp. aureus (ATCC 6538), Escherichia coli (ATCC 8739) and Candida albicans (ATCC 10231). We tested the antimicrobial activity of the compounds at the concentration range of 6.25–100 µg/mL.
(§2) The detection of the antibacterial and antifungal effects of the tested compounds and the determination of the minimum inhibitory concentration (MIC) were carried out based on the method of CLSI [48] and Hungarian Pharmacopeia (chapters VIII. 2.6.12–13.).
(§3) For the antimicrobial studies, we used three human pathogens as test organisms: Candida albicans (ATCC 10231), Staphylococcus aureus subspecies aureus (ATCC 6538) and Escherichia coli (ATCC 8739).
(§4) Staphylococcus aureus subspecies aureus and Escherichia coli were cultured on tryptic soya agar (TSA) for 18–24 h at 37 °C. Candida albicans was cultured on Sabouraud dextrose agar (SDA) for 18–24 h at 37 °C. To obtain cells for suspension, we made cell suspensions from Staph. aureus, E. coli and C. albicans with the cotton swab suspension technique. The dilution of suspension was then made with 0.85% NaCl solution, absorbance being set to A600nm = 0.06. a volume of 10 μL of these suspensions contained ~4.5–6.0 × 10^4 colony forming unit (CFU) (bacteria) and ~1.5–2.0 × 10^3 CFU for yeast.
(§5) Tested agents were diluted with DMSO; the concentration of stock solutions was 4 mg/mL; and to ensure sterility, the closed sample containers were incubated at 35 °C for 1 h. The highest final concentration was 100 μg/mL.
(§6) Testing was performed in 24-well plates, and cell suspensions were prepared with 0.85% NaCl solution. Stock solutions were made from the agents with DMSO (100%). Final concentrations of used compounds were 6.25–100 µg/mL. […] After inoculation, plates were incubated at 35 °C, and results were then read visually after 18–24 h. If microbial growth could not be detected, results were read visually after 72 h. If there was no growth after 72 h, incubation was continued till the fifth day of the experiment and the results were read visually and with plate reader at 600 nm after 120 h.
(§7) The MIC value of a compound was defined as the minimal concentration that inhibits the growth of bacteria and yeasts comparing to the control. The results of the antibacterial and antifungal tests were read visually after 24, 48, 72 and 120 h. The microbial growth was measured by plate reader at 600 nm after 120 h.

[5] = system: Staphylococcus aureus ssp. aureus (ATCC 6538); experiment: as above; format: cell-based; settings: for MIC: Staphylococcus aureus, ATCC6538, tested range 6.25–100 µg/mL
Experimental: as §1, §2, §3, §4, §5, §6, §7

[6] = system: Candida albicans (ATCC 10231); experiment: MIC determination (antifungal susceptibility test); format: cell-based; settings: for MIC: Candida albicans
Experimental: as §1, §2, §3, §4, §5
as §6, with “Final concentrations of used compounds were 6.25–100 µg/mL.” left out
as §7

rat red blood cells = experiment: Hemolytic activity on rat red blood cells; format: cell-based, Sprague-Dawley rat; settings: 15 min, 37 °C; for hemolysis compared to negative control PBS: 6.25 µg/mL; for hemolysis (haemoglobin release): 50 and 100 µg/mL, comparable to water positive control
Experimental: The hemolytic activity of compounds 10 and 22 was determined on freshly isolated rat red blood cells (Figure 4).
Blood was collected from a Sprague-Dawley rat into an EDTA tube. Erythrocytes were separated from blood by centrifugation at 1800 rpm for 8 min, washed 3 times with phosphate buffered saline (PBS), and resuspended in PBS. Aliquots of the cell suspension with the respective red blood cell number of 7 × 10^7 were added to PBS containing increasing concentrations of the test compounds or the vehicle DMSO. After gently mixing, each mixture was incubated at 37 °C for 15 min. The released hemoglobin into the supernatant was separated by a rapid centrifugation at 5000 rpm for 5 min. Finally, the absorbance of the released hemoglobin was measured at 540 nm using a Multiskan Go (ThermoFisher, Waltham, MA, USA) microplate reader. The absorbance values were compared to the absorbance of the sample kept in purified water during the incubation as positive control and given as percent hemolysis.

[7] = system: Lactobacillus plantarum subsp. plantarum (ATCC 14917); experiment: Membrane permeabilization by SYTOX green staining; format: cell-based; settings: 6.25 µg/mL; for membrane permeabilization (cellular fluorescence of SYTOX green): Figure 5
Experimental: In membrane permeabilization experiments, the Gram-positive Lactobacillus plantarum was used to test the effect of compounds 10 and 22 at 6.25 µg/mL for 48 h. Bacterial cells were stained with SYTOX green (SG) fluorescent dye, which is impermeable on intact membranes but easily penetrates through compromised membranes.
Lactobacillus plantarum subsp. plantarum (ATCC 14917) was purchased from ATCC (Manassas, VA, USA). The membrane permeabilization ability of compounds 10 and 22 was tested on L. plantarum and determined in the brain heart infusion medium (BHI) (CliniChem Ltd., Budapest, Hungary). Bacterial cells were treated with the test compounds at the final concentration of 6.25 µg/mL and samples were taken at 1, 4, 8, 24 and 48 h. Samples were stained with SYTOX green fluorescent dye (ThermoFischer Scientific, Budapest, Hungary) at 1 µM final concentration for 30 min at 37 °C, and flow cytometric measurements were carried out with a Guava Easy Cyte 6HT-2L flow cytometer (Merck Ltd., Darmstadt, Germany). Green (525/30 nm) and red (695/50 nm) fluorescence channels were used to gate out the cells on a green versus red dot plot. The ratio of the SYTOX green (SG) positive bacterial cells was evaluated.

[8] = system: Candida albicans (ATCC 10231); parameters: method as in PMID 32349998, PMID 25392352; settings: reference antifungal; cited from earlier work
[9] = ATCC10231, 10× diluted, tested range 0.625–10.0 µg/mL, read-out: MIC Candida albicans (ATCC 10231), lower concentrations
[10] = ATCC10231, tested range 6.25–100 µg/mL, read-out: MIC Candida albicans (ATCC 10231)

Compound	cytotoxic effect on HaCaT cells (in words) [3]	IC50 [3] [µg/mL]	MIC [4] [µg/mL]	MIC [5] [µg/mL]	MIC [6, 9] [µg/mL]	MIC [6, 10] [µg/mL]	further results
CNC(C)C1CCC(N)C(OC2C(N)CC(N)C(OC3OCC(C)(O)C(NC)C3O)C2O)O1 (centres unmarked) [Gentamicin]							MIC Escherichia coli (ATCC 8739) [1]: 8 [42] µg/mL; MIC Staphylococcus aureus (ATCC 6538) [2]: 8 [43, 44, 45] µg/mL
CC(C)(O/N=C(\C(=O)N[C@@H]1C(=O)N2C(C(=O)[O-])=C(C[n+]3ccccc3)CS[C@H]12)c1csc(N)n1)C(=O)O [Ceftazidime]							MIC Escherichia coli (ATCC 8739) [1]: 8 [42] µg/mL; MIC Staphylococcus aureus (ATCC 6538) [2]: 8 [43, 44, 45] µg/mL
CCS[C@H]1O[C@H](C[N+]2=C3CCCCCN3CCC2)[C@@H](OCc2ccc3ccccc3c2)[C@@H](OCc2ccccc2)[C@H]1OCc1ccccc1 [Compound 29]	only slight cytotoxicity; also recorded: greatly reduced toxicity	11.9 ± 0.25	> 100	6.25 to 50	2.5	< 6.25	MIC Staphylococcus aureus (ATCC 6538) ([5]; tested range 6.25–100 µg/mL): <12.5 µg/mL
CCS[C@H]1O[C@H](C[N+]2=C3CCCCCN3CCC2)[C@@H](OCc2ccc3ccccc3c2)[C@H](OCc2ccccc2)[C@H]1OCc1ccccc1 [Compound 10]	only slight cytotoxicity; also recorded: greatly reduced toxicity	15.3 ± 0.78	≥ 100	< 6.25	5	< 6.25	hemolysis compared to negative control PBS (rat red blood cells): did not cause significant hemolysis; hemolysis (haemoglobin release) (rat red blood cells): significantly increased the hemolysis; also recorded: significant haemoglobin release; effect on HaCaT cell viability at antibacterially and antifungally active concentrations [3]: hardly affected the cell viability; membrane permeabilization (cellular fluorescence of SYTOX green) [7]: increased membrane permeabilization; ratio of SYTOX green (SG) positive cells ([7]; after 1 h of incubation): increased the ratio of SG-positive cells; ratio of SYTOX green (SG) positive cells ([7]; after 4 h of incubation): drastically increased; MIC Candida albicans (ATCC 10231), lower concentrations ([6]; 10× diluted, tested range 0.625–10.0 µg/mL): 5.0 µg/mL
c1ccc(CO[C@@H]2[C@H](OCc3ccccc3)[C@@H](Sc3ccccc3)O[C@H](C[N+]3=C4CCCCCN4CCC3)[C@H]2OCc2ccc3ccccc3c2)cc1 [Compound 22]	only slight cytotoxicity; also recorded: greatly reduced toxicity	10.3 ± 0.41	≥ 100	< 6.25	2.5	< 6.25	hemolysis compared to negative control PBS (rat red blood cells): did not cause significant hemolysis; hemolysis (haemoglobin release) (rat red blood cells): significantly increased the hemolysis; also recorded: significant haemoglobin release; effect on HaCaT cell viability at antibacterially and antifungally active concentrations [3]: hardly affected the cell viability; membrane permeabilization (cellular fluorescence of SYTOX green) [7]: increased membrane permeabilization; ratio of SYTOX green (SG) positive cells ([7]; after 1 h of incubation): increased the ratio of SG-positive cells; ratio of SYTOX green (SG) positive cells ([7]; after 4 h of incubation): drastically increased
CO[C@H]1O[C@H](C[N+]2=C3CCCCCN3CCC2)[C@@H](OCc2ccccc2)[C@H](OC(=O)c2ccccc2)[C@H]1OC(=O)c1ccccc1 [Compound 3, 8-N-[methyl 6-deoxy-6-yl-2,3-di-O-benzoyl-4-O-benzyl-α-D-glucopyranoside]-1,8-diazabicyclo(5.4.0)undec-7-ene-iodide]	strongest cytotoxic effect	0.13 ± 0.06	> 100	6.25 to 50			
C[C@@H]1[C@H](O)[C@@H](C)/C=C/C=C/C=C/C=C/C=C/C=C/C=C/[C@H](O[C@@H]2O[C@H](C)[C@@H](O)[C@H](N)[C@@H]2O)C[C@@H]2O[C@](O)(C[C@@H](O)C[C@@H](O)[C@H](O)CC[C@@H](O)C[C@@H](O)CC(=O)O[C@H]1C)C[C@H](O)[C@H]2C(=O)O [Amphotericin B]							MIC Candida albicans (ATCC 10231) [8]: <0.5 [46, 47] µg/mL
